# Results published in paper PMC8158513, “Bio-Distribution and Pharmacokinetics of Topically Administered γ-Cyclodextrin Based Eye Drops in Rabbits” (Pharmaceuticals, 2021).
# Experiments:
# [1] = Blood-plasma PK after topical eye drop administration; settings: for concentration at 6 h: Plasma concentration at 6 h
# Procedure: (§1) A total number of 59 rabbits were included in this part of the study. All rabbits were consecutively assigned to one of the two study groups. […] Group 2 animals were dosed with 0.15% candesartan eye drops, while 23 rabbits received a single dose and 5 rabbits received multiple doses of the eye drops. Single dose rabbits of both groups were additionally randomized to one of five euthanasia time points: 0.5 h ± 5 min, 1.5 h ± 5 min, 3 h ± 10 min, 6 h ± 15 min or 12 h ± 30 min after instillation. In all animals, 35 μL of the study drug were instilled in the conjunctival sac of the right eye with a calibrated pipette using single-use dispensers. Single dose animals were instilled only once while multiple dose animals were instilled twice daily for a total of 5 days. In all animals only the right eye was treated. To assess drug concentrations, eyes were enucleated at the end of the study period. Before enucleation, rabbits were euthanized in deep anesthesia (ketamine 60 mg/kg, xylazine 16 mg/kg, s.c.) by an intravenous over-dose of pentobarbitone sodium (300 mg/kg i.v.) and enucleation was performed immediately after euthanasia. Single dose animals were enucleated at one of the five specified time-points. Multiple dose animals were euthanized 1 h ± 30 min after the last drug administration. From each animal both eyes were enucleated and stored at −80 °C. For separation of the different ocular tissues, the eyeball was removed from −80 °C storage and corneal tissue, aqueous humor, vitreous humor and retinal/choroidal tissue were dissected. The tissues were collected separately in individual tubes, which were weighed and then stored at −80 °C.
# A venous blood sample of 2 mL was collected from the saphenous vein before the (first) drug administration and prior to euthanasia to determine systemic drug exposure at baseline and after drug administration. The blood was centrifuged for 10 min at a temperature of 10 °C and a speed of 3000 rpm. The resulting supernatant was separated and stored in a tube at −80 °C until further processing.
# (§2) Both, the eye-tissue and plasma samples were shipped to Nucro-Technics (Nucro-Technics, 2000 Ellesmere Road, Unit #16, Scarborough, ON, Canada) for quantitative analysis. For this purpose, a new liquid chromatography/tandem mass spectrometry method for simultaneous quantification of candesartan and irbesartan in rabbit eye tissues including cornea, aqueous humor, vitreous body and retina was developed. The exact method and validation are described in detail elsewhere.
# (§3) This study was designed to assess pharmacokinetics and local tolerability, no formal sample size calculation has been performed. Descriptive statistics was used for all quantitative data to describe drug concentrations after the single and multiple dosing in the different tissues. […] For pharmacokinetic calculations Phoenix WinNonlin 8.1 (Certara, Princeton, NJ, USA) was used, and the statistical analysis was done using CSS Statistica 6.0 (Tulsa, OK, USA).
# (§4) To facilitate calculation of the PK parameters, a plausibility check was performed and values below the lower limit of quantification (BLOQ; plasma: <0.05 ng/mL; tissue: <5 ng/g (irbesartan), <2 ng/g (candesartan)) were set to 0. […] All baseline plasma sample values were set to zero.
# [2] = Single-dose ocular bio-distribution and pharmacokinetics of topical γCD based eye drops (LC-MS/MS of ocular tissues); settings: for Cmax / Tmax: topical or ocular
# Procedure: as §1, §2, §3, §4
# [3] = Pre-formulation studies (γCD complexation, physicochemical parameters)
# Procedure: Pre-formulation studies with different candesartan (0.1–0.2%) and irbesartan (1.0–2.0%) concentrations were performed to find the optimal drug concentration for the animal experiments.
# [4] = target: angiotensin II receptor (AT1 subtype); settings: cited from earlier work
# [5] = Multiple-dose ocular bio-distribution (twice daily for 5 days, tissues 1 h after last dose); settings: New Zealand White, rabbit, topical, 35 µL
# Procedure: as §1, with “Single dose animals were enucleated at one of the five specified time-points. Multiple dose animals were euthanized 1 h ± 30 min after the last drug administration. From each animal both eyes were enucleated and stored at −80 °C. For separation of the different ocular tissues, the eyeball was removed from −80 °C storage and corneal tissue, aqueous humor, vitreous humor and retinal/choroidal tissue were dissected. The tissues were collected separately in individual tubes, which were weighed and then stored at −80 °C.” left out
# as §2, with “The exact method and validation are described in detail elsewhere.” left out
# This study was designed to assess pharmacokinetics and local tolerability, no formal sample size calculation has been performed. Descriptive statistics was used for all quantitative data to describe drug concentrations after the single and multiple dosing in the different tissues. […]
# To facilitate calculation of the PK parameters, a plausibility check was performed and values below the lower limit of quantification (BLOQ; plasma: <0.05 ng/mL; tissue: <5 ng/g (irbesartan), <2 ng/g (candesartan)) were set to 0. […]
# [6] = New Zealand White, rabbit, plasma, topical or ocular, 35 µL
# [7] = New Zealand White, rabbit, in vivo, topical or ocular
# [8] = New Zealand White, rabbit, in vivo
smiles,measurement,setting,value
CCOc1nc2cccc(C(=O)O)c2n1Cc1ccc(-c2ccccc2-c2nnn[nH]2)cc1 [candesartan],Cmax,[1]; [6],4.32 ± 1.04 ng/mL
same,Tmax,[1]; [6],30 min
same,half-life,[1]; [6],584 min
same,concentration at 1 h after last dose,"[1]; New Zealand White, rabbit, plasma, topical, 35 µL, Mean plasma levels (Cmean) after the last dose, multiple doses twice daily for 5 days",4.78 ± 1.48 ng/mL
same,Plasma AUC,"[1]; single topical administration, AUC 0 h-12 h",8.75 (ng/mL)*h
same,Cmax,"[2]; New Zealand White, rabbit, aqueous humor, treated study eye, 35 µL, Cmax SE, aqueous humor (AH), single dose, study eye, mean ± SD, also published separately [20]",30 ± 14 ng/g
same,Tmax,"[2]; New Zealand White, rabbit, aqueous humor, treated study eye, 35 µL, Tmax SE, aqueous humor (AH), single dose, study eye, also published separately [20]",180 min
same,Cmax,"[2]; New Zealand White, rabbit, aqueous humor, untreated control eye, 35 µL, Cmax CE, aqueous humor (AH), single dose, control eye, also published separately [20]",< 2 ng/g
same,Cmax,"[2]; New Zealand White, rabbit, corneal tissue, treated study eye, 35 µL, Cmax SE, corneal tissue (CT), single dose, study eye, mean ± SD, also published separately [20]",3500 ± 801 ng/g
same,Tmax,"[2]; New Zealand White, rabbit, corneal tissue, treated study eye, 35 µL, Tmax SE, corneal tissue (CT), single dose, study eye, also published separately [20]",90 min
same,Cmax,"[2]; New Zealand White, rabbit, corneal tissue, untreated control eye, 35 µL, Cmax CE, corneal tissue (CT), single dose, control eye, mean ± SD, also published separately [20]",2 ± 4 ng/g
same,Tmax,"[2]; New Zealand White, rabbit, corneal tissue, untreated control eye, 35 µL, Tmax CE, corneal tissue (CT), single dose, control eye, also published separately [20]",30 min
same,Cmax,"[2]; New Zealand White, rabbit, retinal tissue, 35 µL, Retinal tissue single dose Cmax in molar units, single dose, assuming molar weight 428.54 g/mol irbesartan, 440.45 g/mol candesartan",144 nM
same,Cmax,"[2]; New Zealand White, rabbit, retinal/choroidal tissue, treated study eye, 35 µL, Cmax SE, retinal(choroidal) tissue (RT), single dose 35 μL topical, mean ± SD",63 ± 39 ng/g
same,Tmax,"[2]; New Zealand White, rabbit, retinal/choroidal tissue, treated study eye, 35 µL, Tmax SE, retinal tissue (RT), single dose, study eye",≤ 30 min
same,half-life,"[2]; New Zealand White, rabbit, retinal/choroidal tissue, treated study eye, topical, 35 µL",323 min
same,Cmax,"[2]; New Zealand White, rabbit, retinal/choroidal tissue, untreated control eye, 35 µL, Cmax CE, retinal tissue (RT), single dose, mean ± SD",< 2 ng/g
same,Tmax,"[2]; New Zealand White, rabbit, retinal/choroidal tissue, untreated control eye, 35 µL, Tmax CE, retinal tissue (RT), single dose, control eye",30 min
same,Cmax,"[2]; New Zealand White, rabbit, vitreous humor, treated study eye, 35 µL, Cmax SE, vitreous humor (VH), single dose, study eye, mean ± SD",< 2 ng/g
same,Tmax,"[2]; New Zealand White, rabbit, vitreous humor, treated study eye, 35 µL, Tmax SE, vitreous humor (VH), single dose, study eye",30 min
same,Cmax,"[2]; New Zealand White, rabbit, vitreous humor, untreated control eye, 35 µL, Cmax CE, vitreous humor (VH), single dose, control eye",< 2 ng/g
same,"Cmax CE, vitreous humor (VH)","[2]; single dose, control eye",below the respective lower quantification limit
same,Time of maximum retinal drug concentration after single administration,"[2]; single dose, retina",30 min
same,Retinal tissue AUC,"[2]; single dose, study eye, AUC 0 h-12 h",210 ng·h/g
same,"Cmax SE, vitreous humor (VH)","[2]; single dose, study eye, mean ± SD",<2 ng/g
same,Complexing efficiency of the γCD complex,[3]; compared with irbesartan,lower
same,IC50,[4],0.4 nM
same,concentration at 1 h after last dose,"[5]; retinal tissue, Retinal tissue Cmean in molar units, multiple dose, assuming molar weight 428.54 g/mol irbesartan, 440.45 g/mol candesartan",82 nM
same,concentration at 1 h after last dose,"[5]; retinal/choroidal tissue, treated study eye, Cmean retinal tissue (RT), SE, multiple doses twice daily 5 days, 1 h ± 30 min after last dose, study eye, mean ± SD",36 ± 10 ng/g
same,concentration at 1 h after last dose,"[5]; vitreous humor, treated study eye, Cmean vitreous humor (VH), SE, multiple doses, 1 h after last dose, study eye",< 2 ng/g
CCCCC1=NC2(CCCC2)C(=O)N1Cc1ccc(-c2ccccc2-c2nnn[nH]2)cc1 [irbesartan],concentration at 6 h,"[1]; New Zealand White, rabbit, in vivo, mean of the other concentrations (outlier excluded)",1.16 ng/mL
same,concentration at 6 h,"[1]; New Zealand White, rabbit, in vivo, single value defined as outlier",65.2 ng/mL
same,Cmax,[1]; [7],5.64 ± 4.08 ng/mL
same,Tmax,[1]; [7],30 min
same,half-life,[1]; [7],1060 min
same,Plasma AUC,"[1]; rabbit, in vivo, topical or ocular",17.64 (ng/mL)*h
same,Retinal tissue AUC,[2]; [8],941 ng·h/g
same,Retinal tissue AUC relative to the corresponding candesartan AUC,[2]; [8],around 4.5 times
same,Time of maximum retinal drug concentration after single administration,[2]; [8],30 min
same,concentration at 0.5 h,[2]; [8],14 ± 16 ng/g
same,half-life,[2]; [8],199 min
same,Cmax,"[2]; New Zealand White, rabbit, in vivo, Cmax CE, aqueous humor (AH)",< 5 ng/g
same,Cmax,"[2]; New Zealand White, rabbit, in vivo, Cmax CE, corneal tissue (CT)",49 ± 85 ng/g
same,Cmax,"[2]; New Zealand White, rabbit, in vivo, Cmax CE, retinal tissue (RT)",23 ± 34 ng/g
same,Cmax,"[2]; New Zealand White, rabbit, in vivo, Cmax CE, vitreous humor (VH)",< 5 ng/g
same,Cmax,"[2]; New Zealand White, rabbit, in vivo, Cmax SE, aqueous humor (AH)",121 ± 69 ng/g
same,Cmax,"[2]; New Zealand White, rabbit, in vivo, Cmax SE, corneal tissue (CT)",3660 ± 988 ng/g
same,Cmax,"[2]; New Zealand White, rabbit, in vivo, Cmax SE, retinal(choroidal) tissue (RT)",251 ± 142 ng/g
same,Cmax,"[2]; New Zealand White, rabbit, in vivo, Cmax SE, vitreous humor (VH)",14 ± 16 ng/g
same,Tmax,"[2]; New Zealand White, rabbit, in vivo, Tmax CE, aqueous humor (AH)",30 min
same,Tmax,"[2]; New Zealand White, rabbit, in vivo, Tmax CE, corneal tissue (CT)",90 min
same,Tmax,"[2]; New Zealand White, rabbit, in vivo, Tmax CE, retinal tissue (RT)",30 min
same,Tmax,"[2]; New Zealand White, rabbit, in vivo, Tmax CE, vitreous humor (VH)",30 min
same,Tmax,"[2]; New Zealand White, rabbit, in vivo, Tmax SE, aqueous humor (AH)",180 min
same,Tmax,"[2]; New Zealand White, rabbit, in vivo, Tmax SE, corneal tissue (CT)",90 min
same,Tmax,"[2]; New Zealand White, rabbit, in vivo, Tmax SE, retinal tissue (RT)",≤ 30 min
same,Tmax,"[2]; New Zealand White, rabbit, in vivo, Tmax SE, vitreous humor (VH)",30 min
same,"Cmax CE, vitreous humor (VH)","[2]; rabbit, in vivo",below the respective lower quantification limit
same,Affinity for the γCD cavity,"[3]; among telmisartan, olmesartan, irbesartan and candesartan",highest affinity
same,IC50,[4],1.3 nM
